Drawing on patent US20260274833A1 (NiKang Therapeutics, Inc., priority 2022, published 2026), this text covers IC50 for 19 compounds.

This experiment has as its target T1, CDK2 (Homo sapiens, UniProt P24941).
T1 construct: endogenous in cells; host or cells: OVCAR3 cells
Kind of experiment: Phospho-RB measurement in OVCAR3 cells (HTRF phospho-RB cellular kit). To be noted: inhibition of RB phosphorylation at S807/811 (HTRF, TR-FRET ratio 665/620), 24 h compound treatment, 0.3 to 10,000 nM. The class given is cell-based. As for the experimental part: Biological Example 1: Phospho-RB Measurement in OVCAR3 Cells
The ability of compounds of Formula (I) to inhibit CDK2 was determined in OVCAR3 cells by measuring inhibition of phosphorylation of RB protein at S780 and S807/811. Phosphorylation of RB protein at S807/811 were measured using HTRF phospho-RB cellular kits (Cat #64RBS807PEG) from Cisbio.
On Day 1, OVCAR3 cells were seeded into 96-well tissue-culture treated plates at 20,000 cells/well in 200 μL and incubated overnight at 37° C. in CO2 atmosphere. On Day 2, the cells were treated with test compounds at concentrations from 0.3 to 10,000 nM using HP D300 digital dispenser. Twenty-four hours after compound treatment, cell culture media was removed by flicking the plate and tapping the plate against clean paper towel. Immediately 30 μL 1× lysis buffer was supplemented from the kit and the plate was incubated at room temperature on shaker for 30 min. After homogenization by pipetting up and down, 8 μL cell lysate from 96-well cell culture plate was transferred to 384-well small volume white detection plate. 2 μL premixed detection solution was added and the plate was covered with sealer. To prepare the detection solution, d2 conjugated-phospho-RB antibody and Eu-cryptate conjugated phosphor-RB antibody were diluted into detection buffer following manufacturer's instruction.
Detection plates were incubated for 4 h at room temperature and read on ClarioStar (BMG Labtech) in TR-FRET mode ([…]). The TR-FRET ratio (665 nM/620 nM) was plotted against the compound concentration and normalized to DMSO controls. Half maximal inhibition concentration (IC50) values are calculated with a four-parameter logistic fit using GraphPad Prism (version 8; La Jolla, CA).
A general note: TR-FRET usually uses a lanthanide donor and a delayed reading to cut background.

In general, IC50 refers to the concentration that gives 50% inhibition. `O=S1(=O)CC2(CC(Nc3nccc(-c4sc(C56CC(C5)C6)nc4-c4cccc(NS(=O)(=O)N5CCc6cc(F)c(F)cc65)c4F)n3)C2)C1` [Example 34, N-(3-(2-(bicyclo [1.1.1]pentan-1-yl)-5-(2-((2,2-dioxido-2-thiaspiro[3.3]heptan-6-yl)amino)-pyrimidin-4-yl)thiazol-4-yl)-2-fluorophenyl)-5,6-difluoroindoline-1-sulfonamide]: the IC50 was determined as 116 nM.

Regarding `CN1CC2CCC(C1)N2c1nc(-c2cccc(NS(=O)(=O)N3Cc4cccc(C(F)F)c4C3)c2F)c(-c2ccnc(NC3CC4(C3)CS(=O)(=O)C4)n2)s1` [Example 18, 4-(difluoromethyl)-N-(3-(5-(2-((2,2-dioxido-2-thiaspiro [3.3]heptan-6-yl)amino)pyrimidin-4-yl)-2-(3-methyl-3,8-diazabicyclo [3.2.1]octan-8-yl)thiazol-4-yl)-2-fluorophenyl)-isoindoline-2-sulfonamide], the IC50 was 24.8 nM.

Take `COc1ccc2c(c1)CN(S(=O)(=O)Nc1cccc(-c3nc(C(C)(C)C)sc3-c3ccnc(NC4CCN(S(C)(=O)=O)CC4)n3)c1F)C2` [Example 72, N-(3-(2-(tert-butyl)-5-(2-((1-(methylsulfonyl)-piperidin-4-yl)amino)-pyrimidin-4-yl)thiazol-4-yl)-2-fluoro-phenyl)-5-methoxyisoindoline-2-sulfonamide]: the IC50 is 185 nM.

Turning to `CC(C)(C)c1nc(-c2cccc(NS(=O)(=O)N3CCC4(CC4)C3)c2F)c(-c2ccnc(NC3CC4(C3)CS(=O)(=O)C4)n2)s1` [Example 180, N-(3-(2-(tert-butyl)-5-(2-((2,2-dioxido-2-thiaspiro[3.3]heptan-6-yl)amino)-pyrimidin-4-yl)thiazol-4-yl)-2-fluoro-phenyl)-5-azaspiro[2.4] heptane-5-sulfonamide], the concentration for half-maximal inhibition (IC50) was determined as 2820 nM.

In the case of `CN(C1CNC1)S(=O)(=O)N1CCC(Nc2nccc(-c3sc(C(C)(C)C)nc3-c3cccc(NS(=O)(=O)N4Cc5ccccc5C4)c3F)n2)CC1` [Example 173, N-(3-(5-(2-((1-(N-(azetidin-3-yl)-N-methylsulfamoyl)piperidin-4-yl)amino)-pyrimidin-4-yl)-2-(tert-butyl)thiazol-4-yl)-2-fluorophenyl) isoindoline-2-sulfonamide], the IC50 was 385 nM.

Consider `CC1(c2nc(-c3cccc(NS(=O)(=O)N4CCc5ccc(C#N)cc54)c3F)c(-c3ccnc(NC4CC5CS(=O)(=O)CC5C4)n3)s2)CCOCC1` (stereo not shown) [Example 240, 6-cyano-N-(3-(5-(2-((2,2-dioxidohexa-hydro-1H-cyclopenta[c]thiophen-5-yl)amino)-pyrimidin-4-yl)-2-(4-methyl-tetrahydro-2H-pyran-4-yl)thiazol-4-yl)-2-fluorophenyl)-indoline-1-sulfonamide], for which the IC50 came out at 38.2 nM.

Take `O=S1(=O)CC2(CC(Nc3nccc(-c4sc(C56CC(C5)C6)nc4-c4cccc(NS(=O)(=O)N5C6CCC5CC6)c4F)n3)C2)C1` [Example 265, N-(3-(2-(bicyclo[1.1. 1]pentan-1-yl)-5-(2-((2,2-dioxido-2-thiaspiro[3.3]heptan-6-yl)amino)-pyrimidin-4-yl)thiazol-4-yl)-2-fluorophenyl)-7-azabicyclo[2.2.1]-heptane-7-sulfonamide]: the IC50 came to 5270 nM.

As to `CCOc1cccc2c1CN(S(=O)(=O)Nc1cccc(-c3nc(C(C)(C)C)sc3-c3ccnc(NC4CC5(C4)CS(=O)(=O)C5)n3)c1F)C2` [Example 204, N-(3-(2-(tert-butyl)-5-(2-((2,2-dioxido-2-thiaspiro[3.3]heptan-6-yl)amino)-pyrimidin-4-yl)thiazol-4-yl)-2-fluoro-phenyl)-4-ethoxyisoindoline-2-sulfonamide], the IC50 turned out to be 69.2 nM.

In the case of `CC(C)(C)c1nc(-c2cccc(NS(=O)(=O)N3Cc4ccc(C#N)cc4C3)c2F)c(-c2ccnc(NC3CCN(S(C)(=O)=O)CC3)n2)s1` [Example 97, N-(3-(2-(tert-butyl)-5-(2-((1-(methylsulfonyl)piperidin-4-yl)amino)-pyrimidin-4-yl)thiazol-4-yl)-2-fluorophenyl)-5-cyanoisoindoline-2-sulfonamide], the IC50 was found to be 285 nM.

Regarding `CC(C)(C)c1nc(-c2cccc(NS(=O)(=O)N3CCN(c4ccccc4)CC3)c2F)c(-c2ccnc(NC3CCN(S(C)(=O)=O)CC3)n2)s1` [Example 64, N-(3-(2-(tert-butyl)-5-(2-((1-(methylsulfonyl)-piperidin-4-yl)amino)-pyrimidin-4-yl)thiazol-4-yl)-2-fluoro-phenyl)-4-phenylpiperazine-1-sulfonamide], the IC50 turned out to be 735 nM.

Take `O=S1(=O)CC2(CC(Nc3nccc(-c4sc(C56CC(C5)C6)nc4-c4cccc(NS(=O)(=O)N5CCc6c5cccc6C(F)(F)F)c4F)n3)C2)C1` [Example 42, N-(3-(2-(bicyclo [1.1.1]pentan-1-yl)-5-(2-((2,2-dioxido-2-thiaspiro[3.3]heptan-6-yl)amino)-pyrimidin-4-yl)thiazol-4-yl)-2-fluorophenyl)-4-(trifluoromethyl)-indoline-1-sulfonamide]: the IC50 stood at 278 nM.

For the compound `O=S1(=O)CC2(CC(Nc3nccc(-c4sc(N5C6CCC5CN(C5CC(F)(F)C5)C6)nc4-c4cccc(NS(=O)(=O)N5CCc6ccc(Cl)cc65)c4F)n3)C2)C1` [Example 51, 6-chloro-N-(3-(2-(3-(3,3-difluoro-cyclobutyl)-3,8-diazabicyclo [3.2.1]octan-8-yl)-5-(2-((2,2-dioxido-2-thiaspiro-[3.3]heptan-6-yl)amino)-pyrimidin-4-yl)thiazol-4-yl)-2-fluorophenyl)-indoline-1-sulfonamide], the IC50 came out at 336 nM.

As for `CC(C)(C)c1nc(-c2cccc(NS(=O)(=O)N3CCC(Oc4ccccc4)CC3)c2F)c(-c2ccnc(NC3CCN(S(C)(=O)=O)CC3)n2)s1` [Example 65, N-(3-(2-(tert-butyl)-5-(2-((1-(methylsulfonyl)-piperidin-4-yl)amino)-pyrimidin-4-yl)thiazol-4-yl)-2-fluoro-phenyl)-4-phenoxypiperidine-1-sulfonamide], the IC50 stood at 588 nM.

Regarding `CC(C)(C)c1nc(-c2cccc(NS(=O)(=O)N3Cc4ccncc4C3)c2F)c(-c2ccnc(NC3CCN(S(=O)(=O)N4CCNCC4)CC3)n2)s1` [Example 126, N-(3-(2-(tert-butyl)-5-(2-((1-(piperazin-1-ylsulfonyl)piperidin-4-yl)amino)-pyrimidin-4-yl)thiazol-4-yl)-2-fluorophenyl)-1,3-dihydro-2H-pyrrolo[3,4-c] pyridine-2-sulfonamide], the IC50 was determined as 366 nM.

Take `CC(C)(C)c1nc(-c2cccc(NS(=O)(=O)N3CCc4ccncc43)c2F)c(-c2ccnc(NC3CCN(S(C)(=O)=O)CC3)n2)s1` [Example 154, N-(3-(2-(tert-butyl)-5-(2-((1-(methylsulfonyl)-piperidin-4-yl)amino)-pyrimidin-4-yl)thiazol-4-yl)-2-fluoro-phenyl)-2,3-dihydro-1H-pyrrolo[2,3-c]-pyridine-1-sulfonamide]: the IC50 amounted to 685 nM.

Turning to `CN(C)CCN(C)S(=O)(=O)N1CCC(Nc2nccc(-c3sc(C(C)(C)C)nc3-c3cccc(NS(=O)(=O)N4CCc5c(C#N)cccc54)c3F)n2)CC1` [Example 123, N-(3-(2-(tert-butyl)-5-(2-((1-(N-(2-(dimethylamino)ethyl)-N-methylsulfamoyl)-piperidin-4-yl)amino)-pyrimidin-4-yl)thiazol-4-yl)-2-fluoro-phenyl)-4-cyanoindoline-1-sulfonamide], the IC50 is 75.2 nM.

`C[C@@H]1c2ccccc2CN1S(=O)(=O)Nc1cccc(-c2nc(C(C)(C)C)sc2-c2ccnc(NC3CCN(S(C)(=O)=O)CC3)n2)c1F` [Example 130, (R)-N-(3-(2-(tert-butyl)-5-(2-((1-(methyl-sulfonyl)piperidin-4-yl)amino)-pyrimidin-4-yl)thiazol-4-yl)-2-fluoro-phenyl)-1-methyliso-indoline-2-sulfonamide]: the half-maximal inhibitory concentration (IC50) came out at 268 nM.

As to `CS(=O)(=O)[C@H]1CC[C@H](Nc2nccc(-c3sc(C4(C(F)(F)F)CC4)nc3-c3cccc(NS(=O)(=O)N4CCc5ccccc54)c3F)n2)CC1` [Example 284, N-(2-fluoro-3-(5-(2-(((11,4r)-4-(methylsulfonyl)cyclohexyl)amino)pyrimidin-4-yl)-2-(1-(trifluoromethyl)-cyclopropyl)thiazol-4-yl)phenyl)-indoline-1-sulfonamide], the IC50 turned out to be 384 nM.

Consider `O=S1(=O)CC2(CC(Nc3nccc(-c4sc(C56CC(C5)C6)nc4-c4cccc(NS(=O)(=O)N5CCOCc6ccccc65)c4F)n3)C2)C1` [Example 273, N-(3-(2-(bicyclo [1.1.1]pentan-1-yl)-5-(2-((2,2-dioxido-2-thiaspiro[3.3]heptan-6-yl)amino)-pyrimidin-4-yl)thiazol-4-yl)-2-fluorophenyl)-2,3-dihydrobenzo-[e][1,4]oxazepine-1(5H)-sulfonamide], for which the IC50 turned out to be 3280 nM.
